Experimental data as given in PMC11476552, “Synthesis and Preliminary Studies for In Vitro Biological Activity of Two New Water-Soluble Bis(thio)carbohydrazones and Their Copper(II) and Zinc(II) Complexes” (International Journal of Molecular Sciences, 2024).
Where two headings read alike, the source gives them in different places.

Experiment: Proton dissociation constants by UV-visible spectrophotometry
Type: physicochemical
Settings: aqueous buffer solutions
Source text: The proton dissociation constants of Na2H4L^1·5.5 H2O (bis-TCH) were studied by registering the UV–visible spectra in aqueous solution between pH 3.98 and 10.00 (Figure 1A).
Between pH = 3.98 and 6.00, the solutions were colourless with absorption maxima at 237 and 320 nm. From pH = 6.49, the solution was pale green, and the colour became more intense until pH = 10.00; the colour change was accompanied by the appearance of bands at 253 and 393 nm, with a shoulder at 445 nm. […] This value is similar to that reported for the deprotonation of the phenolic moiety of sodium 5-sulfonate-salicylaldehyde thiosemicarbazones. The values of pKa1 and pKa2, associated with the proton dissociation of the sulfonic groups, are expected to have much lower values (below 3) and could not be determined from these experiments. Potentiometric titrations were performed in an attempt to determine the value of the pKa of the hydrazidic NH protons (pKa5 and pKa6) and, possibly, those of the protonated sulfonate groups. Effectively, potentiometric data allowed us to determine the pKa5 value, along with pKa3 and pKa4 (Table 2). The values of pKa3 and pKa4 obtained by potentiometry are consistent with those obtained by spectrophotometric titrations.
Similarly, the proton dissociation constants of bis-CH were studied spectrophotometrically in aqueous solution between pH = 3.98 and 10.00 (Figure 1B). […] The spectrophotometric data were processed by means of HypSpec2014 software, leading to pKa3 = 7.34(1) and pKa4 = 8.58(1), which were assigned to the deprotonation of the two phenolic OH groups (Table 2). As for bis-TCH, the single-site pKa value of the phenolic groups can be estimated as the average pKa (7.96). Additionally, to complete the analysis, we carried out potentiometric titrations of bis-CH starting from a very acidic pH. […] Importantly, no dissociation of the hydrazidic NH groups was observed, a behaviour consistent with that reported in the literature.
The UV–visible spectra were collected using a Thermo Scientific Evolution 260 Bio spectrophotometer equipped with a Peltier temperature controller. Aqueous buffer stock solutions (50 mM) were prepared as follows: acetate buffer solutions (pH = 3.98, 4.62, and 5.00) were prepared by mixing appropriate volumes of AcOH 50 mM and AcONa·3H2O 50 mM solutions. MES (pH = 5.51, 6.00, and 6.49), HEPES (pH = 7.00, 7.48, and 8.01) and CHES (pH = 8.62, 9.01, 9.51, and 10.00) buffer solutions were obtained by suspending appropriate amounts of solid MES/HEPES/CHES in water, adding aqueous NaOH 100 mM until the desired pH was reached. The pH was measured using a Crison Basic 20 pH meter connected with a Hamilton glass electrode. Calibration of the glass electrode was carried out daily. All solutions were prepared using double-distilled water. For all the solutions, the ionic strength was 0.1 M NaCl.
Samples used for the study of protonation equilibria of the ligands were prepared as follows. […] For each solution, the absorption spectrum was collected in the 220–600 nm range at 298.2 K. The spectral data collection was carried out immediately after the preparation of the samples and repeated after 3 and 10 min for all the samples at different pH values to check the stability of the ligand. […] The complex formation equilibria at pH 2.5 or 7.4 of bis-TCH and bis-CH with Cu(II) and Zn(II) ions were studied by direct spectrophotometric titrations of solutions of the ligands with the metal ions, and the samples were prepared as follows. Appropriate aliquots of the stock solutions of the ligands were diluted in a quartz cuvette of 1 cm path length using HEPES buffer (pH 7.4) or by adding HCl aqueous solution (pH 2.5) to obtain ca. 17 µM ligand solutions in a total volume of 2.6 mL. […]

[1] = UV-visible spectrophotometry, aqueous solution, T = 298.2 K, phenolic group, read-out: pKa3
[2] = UV-visible spectrophotometry, aqueous solution, T = 298.2 K, phenolic group, read-out: pKa4
[3] = average of spectrophotometric pKa3 and pKa4, read-out: single-site pKa value of the phenolic groups (average pKa)

SMILES | pKa [1] | pKa [2] | pKa [3]
COc1cc(S(=O)(=O)[O-])cc(/C=N/NC(=O)N/N=C/c2cc(S(=O)(=O)[O-])cc(OC)c2O)c1O.[Na+].[Na+] [bis-CH, Bis-(sodium 3-methoxy-5-sulfonate-salicylaldehyde)-carbohydrazone] | 7.34 | 8.58 | 7.96
COc1cc(S(=O)(=O)[O-])cc(/C=N/NC(=S)N/N=C/c2cc(S(=O)(=O)[O-])cc(OC)c2O)c1O.[Na+].[Na+] [bis-TCH, Bis-(sodium 3-methoxy-5-sulfonate-salicylaldehyde)-thiocarbohydrazone] | 6.78 | 8.77 | 7.78
